# Measured values reported in patent US20230085307A1, “PYRIDAZINONE COMPOUND AND HERBICIDE” (NISSAN CHEMICAL CORPORATION, priority 2019, published 2023).
# System: lambsquarters
# Test: Test Example 4: herbicidal effect by soil treatment (Table 19, symbol O)
# Assay type: in vivo, lambsquarters (Chenopodium album)
# Settings: amount of applied herbicide 320 g/ha
# In short: (§1)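 Herbicidal effect was rated 3 weeks after treatment, using the scoring criteria of an earlier test. The compound, formulated as an emulsion and diluted in water to a set herbicide amount, had been sprayed uniformly on soil over freshly sown seeds. Growth took place in a greenhouse at 25° C. to 30° C.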
row,Compound,"herbicidal effect rating, O: lambsquarters"
1,Cc1nn(C)c(=O)c(-c2c(-c3ccc4c(c3)CCO4)sc3ccccc23)c1O [1-101],5 (Herbicidal rate of 90% or more (almost completely withered))
2,CCCC(=O)Oc1c(C)nn(C)c(=O)c1-c1c(-c2ccc3c(c2)CCO3)sc2ccccc12 [1-102],4 (Herbicidal rate of 70% or more and less than 90%)

# System: windgrass
# Test: Test Example 4: herbicidal effect by soil treatment (Table 19, symbol L)
# Assay type: in vivo, windgrass (Apera spica-venti)
# Settings: amount of applied herbicide 320 g/ha
# In short: as §1
row,Compound,"herbicidal effect rating, L: windgrass"
1,Cc1nn(C)c(=O)c(-c2c(-c3ccc4c(c3)CCO4)sc3ccccc23)c1O [1-101],4 (Herbicidal rate of 70% or more and less than 90%)
2,CCCC(=O)Oc1c(C)nn(C)c(=O)c1-c1c(-c2ccc3c(c2)CCO3)sc2ccccc12 [1-102],0 (Herbicidal rate of 5% or less (almost no effect))

# System: southern crabgrass
# Test: Test Example 4: herbicidal effect by soil treatment (Table 19, symbol F)
# Assay type: in vivo, southern crabgrass (Digitaria ciliaris)
# Settings: amount of applied herbicide 320 g/ha
# In short: as §1
row,Compound,"herbicidal effect rating, F: southern crabgrass"
1,Cc1nn(C)c(=O)c(-c2c(-c3ccc4c(c3)CCO4)sc3ccccc23)c1O [1-101],3 (Herbicidal rate of 40% or more and less than 70%)
2,CCCC(=O)Oc1c(C)nn(C)c(=O)c1-c1c(-c2ccc3c(c2)CCO3)sc2ccccc12 [1-102],2 (Herbicidal rate of 20% or more and less than 40%)

# System: velvetleaf
# Test: Test Example 4: herbicidal effect by soil treatment (Table 19, symbol M)
# Assay type: in vivo, velvetleaf (Abutilon theophrasti)
# Settings: amount of applied herbicide 320 g/ha
# In short: as §1
row,Compound,"herbicidal effect rating, M: velvetleaf"
1,Cc1nn(C)c(=O)c(-c2c(-c3ccc4c(c3)CCO4)sc3ccccc23)c1O [1-101],0 (Herbicidal rate of 5% or less (almost no effect))
2,CCCC(=O)Oc1c(C)nn(C)c(=O)c1-c1c(-c2ccc3c(c2)CCO3)sc2ccccc12 [1-102],1 (Herbicidal rate of 5% or more and less than 20%)

# System: blackgrass
# Test: Test Example 5: herbicidal effect by foliage application, plastic box (Table 20, symbol J)
# Assay type: in vivo, blackgrass (Alopecurus myosuroides)
# Settings: foliage application, AAH 320 g/ha, three weeks after application
# In short: (§2)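 Foliar spray test: emulsion formulation diluted in water to a set application rate, sprayed onto 14-day-old plants raised in diluvial soil at 25° C to 30° C under glass. Both herbicidal effect and crop effect rated visually three weeks later.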
row,Compound,"J: blackgrass, herbicidal effect"
1,Cc1nn(C)c(=O)c(-c2c(-c3ccc4c(c3)CCO4)sc3ccccc23)c1O [1-101],4 (Herbicidal rate of 70% or more and less than 90%)
2,CCCC(=O)Oc1c(C)nn(C)c(=O)c1-c1c(-c2ccc3c(c2)CCO3)sc2ccccc12 [1-102],0 (Herbicidal rate of 5% or less (almost no effect))

# System: late watergrass
# Test: Test Example 1: herbicidal activity, application before weed generation under submerged conditions (Table 16, symbol A)
# Assay type: in vivo, late watergrass (Echinochloa oryzicola)
# Settings: 320 g/ha applied herbicide
# In short: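 Emulsion formulation, water-diluted to set dose, was put onto the flooded surface (4 cm depth, alluvial soil) the same day weeds were sown and 2.5-leaf rice transplanted. After 3 weeks at 25-30 °C under glass, each species was rated 0 (≤5% kill) to 5 (≥90% kill).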
row,Compound,Herbicidal effect on A: late watergrass (grade 0-5)
1,Cc1nn(C)c(=O)c(-c2c(-c3ccc4c(c3)CCO4)sc3ccccc23)c1O [1-101],4 (Herbicidal rate of 70% or more and less than 90%)
2,CCCC(=O)Oc1c(C)nn(C)c(=O)c1-c1c(-c2ccc3c(c2)CCO3)sc2ccccc12 [1-102],4 (Herbicidal rate of 70% or more and less than 90%)

# System: late watergrass
# Test: Test Example 2: herbicidal activity, application during weed generation under submerged conditions (Table 17, symbol A)
# Assay type: in vivo, late watergrass (Echinochloa oryzicola)
# Settings: AAH 320 g/ha; application during weed generation, submerged conditions
# In short: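 Wagner pot, alluvial soil, 4 cm flood; mixed sowing of all species; greenhouse 25° C.–30° C. Emulsifiable formulation, water-diluted to predetermined dose, applied to paddy water at 1–2 leaf stage. Effect rated at 3 wk using the earlier test's scoring criteria.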
row,Compound,"herbicidal effect rating, A: late watergrass"
1,Cc1nn(C)c(=O)c(-c2c(-c3ccc4c(c3)CCO4)sc3ccccc23)c1O [1-101],3 (Herbicidal rate of 40% or more and less than 70%)
2,CCCC(=O)Oc1c(C)nn(C)c(=O)c1-c1c(-c2ccc3c(c2)CCO3)sc2ccccc12 [1-102],3 (Herbicidal rate of 40% or more and less than 70%)

# System: barnyard grass
# Test: Test Example 3: herbicidal effect by foliage application, Wagner pot (Table 18, symbol H)
# Assay type: in vivo, barnyard grass (Echinochloa crus-galli)
# Settings: 320 g/ha
# In short: (§3)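 Plants were sown in alluvial soil held under 0.1–0.5 cm standing water and grown 14 days in a greenhouse at 25–30 °C. An emulsifiable formulation, water-diluted to the set dose, was then sprayed onto the foliage, and effects were scored three weeks later using previously defined criteria.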
row,Compound,"herbicidal effect on H (barnyard grass), rating 0-5"
1,Cc1nn(C)c(=O)c(-c2c(-c3ccc4c(c3)CCO4)sc3ccccc23)c1O [1-101],5 (Herbicidal rate of 90% or more (almost completely withered))
2,CCCC(=O)Oc1c(C)nn(C)c(=O)c1-c1c(-c2ccc3c(c2)CCO3)sc2ccccc12 [1-102],4 (Herbicidal rate of 70% or more and less than 90%)

# System: Italian ryegrass
# Test: Test Example 4: herbicidal effect by soil treatment (Table 19, symbol K)
# Assay type: in vivo, Italian ryegrass (Lolium multiflorum)
# Settings: amount of applied herbicide 320 g/ha
# In short: as §1
row,Compound,"herbicidal effect rating, K: Italian ryegrass"
1,Cc1nn(C)c(=O)c(-c2c(-c3ccc4c(c3)CCO4)sc3ccccc23)c1O [1-101],4 (Herbicidal rate of 70% or more and less than 90%)
2,CCCC(=O)Oc1c(C)nn(C)c(=O)c1-c1c(-c2ccc3c(c2)CCO3)sc2ccccc12 [1-102],3 (Herbicidal rate of 40% or more and less than 70%)

# System: blackgrass
# Test: Test Example 4: herbicidal effect by soil treatment (Table 19, symbol J)
# Assay type: in vivo, blackgrass (Alopecurus myosuroides)
# Settings: amount of applied herbicide 320 g/ha
# In short: as §1
row,Compound,"herbicidal effect rating, J: blackgrass"
1,Cc1nn(C)c(=O)c(-c2c(-c3ccc4c(c3)CCO4)sc3ccccc23)c1O [1-101],0 (Herbicidal rate of 5% or less (almost no effect))
2,CCCC(=O)Oc1c(C)nn(C)c(=O)c1-c1c(-c2ccc3c(c2)CCO3)sc2ccccc12 [1-102],0 (Herbicidal rate of 5% or less (almost no effect))

# System: redroot pigweed
# Test: Test Example 5: herbicidal effect by foliage application, plastic box (Table 20, symbol N)
# Assay type: in vivo, redroot pigweed (Amaranthus retroflexus)
# Settings: foliage application, AAH 320 g/ha, three weeks after application
# In short: as §2
row,Compound,"N: redroot pigweed, herbicidal effect"
1,Cc1nn(C)c(=O)c(-c2c(-c3ccc4c(c3)CCO4)sc3ccccc23)c1O [1-101],4 (Herbicidal rate of 70% or more and less than 90%)
2,CCCC(=O)Oc1c(C)nn(C)c(=O)c1-c1c(-c2ccc3c(c2)CCO3)sc2ccccc12 [1-102],5 (Herbicidal rate of 90% or more (almost completely withered))

# System: lambsquarters
# Test: Test Example 5: herbicidal effect by foliage application, plastic box (Table 20, symbol O)
# Assay type: in vivo, lambsquarters (Chenopodium album)
# Settings: foliage application, AAH 320 g/ha, three weeks after application
# In short: as §2
row,Compound,"O: lambsquarters, herbicidal effect"
1,Cc1nn(C)c(=O)c(-c2c(-c3ccc4c(c3)CCO4)sc3ccccc23)c1O [1-101],4 (Herbicidal rate of 70% or more and less than 90%)
2,CCCC(=O)Oc1c(C)nn(C)c(=O)c1-c1c(-c2ccc3c(c2)CCO3)sc2ccccc12 [1-102],4 (Herbicidal rate of 70% or more and less than 90%)

# System: velvetleaf
# Test: Test Example 5: herbicidal effect by foliage application, plastic box (Table 20, symbol M)
# Assay type: in vivo, velvetleaf (Abutilon theophrasti)
# Settings: foliage application, AAH 320 g/ha, three weeks after application
# In short: as §2
row,Compound,"M: velvetleaf, herbicidal effect"
1,Cc1nn(C)c(=O)c(-c2c(-c3ccc4c(c3)CCO4)sc3ccccc23)c1O [1-101],5 (Herbicidal rate of 90% or more (almost completely withered))
2,CCCC(=O)Oc1c(C)nn(C)c(=O)c1-c1c(-c2ccc3c(c2)CCO3)sc2ccccc12 [1-102],5 (Herbicidal rate of 90% or more (almost completely withered))

# System: Italian ryegrass
# Test: Test Example 5: herbicidal effect by foliage application, plastic box (Table 20, symbol K)
# Assay type: in vivo, Italian ryegrass (Lolium multiflorum)
# Settings: foliage application, AAH 320 g/ha, three weeks after application
# In short: as §2
row,Compound,"K: Italian ryegrass, herbicidal effect"
1,Cc1nn(C)c(=O)c(-c2c(-c3ccc4c(c3)CCO4)sc3ccccc23)c1O [1-101],4 (Herbicidal rate of 70% or more and less than 90%)
2,CCCC(=O)Oc1c(C)nn(C)c(=O)c1-c1c(-c2ccc3c(c2)CCO3)sc2ccccc12 [1-102],3 (Herbicidal rate of 40% or more and less than 70%)

# System: Chinese sprangletop
# Test: Test Example 3: herbicidal effect by foliage application, Wagner pot (Table 18, symbol D)
# Assay type: in vivo, chinese sprangletop (Leptochloa chinensis)
# Settings: 320 g/ha
# In short: as §3
row,Compound,"herbicidal effect on D (Chinese sprangletop), rating 0-5"
1,Cc1nn(C)c(=O)c(-c2c(-c3ccc4c(c3)CCO4)sc3ccccc23)c1O [1-101],5 (Herbicidal rate of 90% or more (almost completely withered))
2,CCCC(=O)Oc1c(C)nn(C)c(=O)c1-c1c(-c2ccc3c(c2)CCO3)sc2ccccc12 [1-102],3 (Herbicidal rate of 40% or more and less than 70%)

# System: persian speedwell
# Test: Test Example 4: herbicidal effect by soil treatment (Table 19, symbol R)
# Assay type: in vivo, Persian speedwell (Veronica persica)
# Settings: amount of applied herbicide 320 g/ha
# In short: as §1
row,Compound,"herbicidal effect rating, R: persian speedwell"
1,Cc1nn(C)c(=O)c(-c2c(-c3ccc4c(c3)CCO4)sc3ccccc23)c1O [1-101],5 (Herbicidal rate of 90% or more (almost completely withered))
2,CCCC(=O)Oc1c(C)nn(C)c(=O)c1-c1c(-c2ccc3c(c2)CCO3)sc2ccccc12 [1-102],5 (Herbicidal rate of 90% or more (almost completely withered))
